Source: the NIST ThermoML archive (doi:10.1016/j.jct.2007.04.005)

Experiment: xn = mol fraction of the nth substance listed
Conditions: 308.15 K, Liquid

CCCCCCCCC [nonane] + C1CCCCC1
mass density [kg/m3]
Conditions	x2 = 0	x2 = 0.09303	x2 = 0.2009	x2 = 0.3051	x2 = 0.417	x2 = 0.512	x2 = 0.5996	x2 = 0.7052	x2 = 0.7993	x2 = 0.9039
18340 kPa	–	–	–	–	–	–	–	752.9	760	769.1
20370 kPa	721.7	724.7	728.6	732.8	737.8	742.4	747.6	754.4	761.5	770.6
22390 kPa	723.1	726.1	730.1	734.3	739.3	743.9	749.1	755.9	763	772.1
24420 kPa	724.5	727.5	731.5	735.7	740.7	745.3	750.5	757.4	764.4	773.6
26450 kPa	725.9	728.9	732.9	737.1	742.1	746.8	751.9	758.8	765.8	775.1
28470 kPa	727.2	730.3	734.2	738.4	743.5	748.1	753.3	760.2	767.2	776.5
29490 kPa	727.8	730.9	734.9	739.1	744.1	748.7	754	760.9	767.9	777.2
30500 kPa	728.5	731.6	735.6	739.8	744.8	749.4	754.7	761.6	768.6	777.9
32530 kPa	729.8	732.9	736.9	741.1	746.1	750.8	756	762.9	770	779.3
34550 kPa	731.1	734.2	738.2	742.4	747.4	752	757.3	764.3	771.3	780.6
36580 kPa	732.4	735.4	739.5	743.7	748.7	753.3	758.6	765.6	772.6	781.9
38600 kPa	733.6	736.7	740.8	745	750	754.6	759.9	766.9	773.9	783.3
39620 kPa	734.3	737.4	741.4	745.6	750.6	755.3	760.6	767.5	774.5	783.9
